Patent US20220331303A1, “USE OF AN OREXIN 2 RECEPTOR AGONIST FOR THE TREATMENT OF EXCESSIVE SLEEPINESS” (Takeda Pharmaceutical Company Limited, priority 2019, published 2022)
“And” between values parts separate entries of the source, which are not always exact repeats. Equal values may be shown once.

System: sleep-deprived healthy volunteers
Assay: Maintenance of wakefulness test (MWT) in sleep-deprived healthy volunteers
Format: in vivo, human
Experimental: The primary objective of this study was to determine the effect of Compound A (methyl (2R,3S)-3-((methylsulfonyl)amino)-2-(((cis-4-phenylcyclohexyl)oxy)methyl)piperidine-1-carboxylate), 44 mg (low dose [LD]) and 112 mg (high dose [HD]), after a single IV dose (compared to placebo) on promoting wakefulness as measured by sleep latency on the MWT (performed at approximately 2, 4, 6, and 8 hours post-dosing starting at approximately 1:00 AM and then at approximate times of 3:00, 5:00, and 7:00 AM) in sleep-deprived healthy volunteers.
This was a phase 1b, single-center, randomized, double-blind, double-dummy, placebo- and active-controlled, 4-period Williams design crossover study to evaluate the PK, PD, and safety of Compound A in sleep-deprived healthy volunteers. Compound A was administered as a 9-hour IV infusion.
Healthy adult male subjects aged 18 to 40 years, inclusive, who satisfied the inclusion and exclusion criteria were enrolled in the trial. On Day 1 of treatment period 1, eligible subjects were equally randomized to 4 treatment sequence groups (sequence 1 to 4) which defined the order of administration for Compound A LD, Compound A HD (both delivered as a 9-hour IV infusion), modafinil 300 mg, and placebo.
During the day before dosing on Day 1, participants were administered the KSS at scheduled timepoints. A practice MWT session was performed on Day 1 treatment period 1 (only once during the entire study) to familiarize subjects with the procedures. Study drug was administered in the clinic in the evening on Day 1 of each treatment period. Subjects underwent the MWT and KSS at specified timepoints after the start of the infusion. Subjects were required to stay awake between the MWT tests. Following completion of the IV infusion on Day 2, subjects underwent an additional MWT test. When the final MWT test and cognitive testing were completed, subjects were allowed to sleep (recovery sleep) for approximately 6 hours. PSG recording was collected during this time. Subjects were discharged from the unit after completion on Day 2 with continuing actigraphy upon discharge (to begin on Day −6 before the next treatment period). The interval between each subsequent treatment period was at least 7 days to ensure that the subject's circadian rhythm had returned to a normal cycle. Subject's vital signs, including BP, were monitored during the dosing and testing period. Blood samples for determination of Compound A plasma concentrations were collected at specified timepoints on Days 1 and 2 of each treatment period. Subjects completed the Columbia-Suicide Severity Rating Scale (C-SSRS) during screening, before study drug administration, and before discharge on Day 2 of each treatment period.
Primary endpoint: Latency for each MWT, defined as time to sleep onset.

[1] = Compound A 44 mg (LD), 2 hours post infusion start
[2] = Compound A 44 mg (LD), 4 hours post infusion start
[3] = Compound A 44 mg (LD), 6 hours post infusion start
[4] = Compound A 44 mg (LD), 8 hours post infusion start
[5] = Compound A 44 mg (LD), average overall during infusion
[6] = Compound A 44 mg (LD, printed ED), 2 hours post infusion start
[7] = Compound A 44 mg (LD, printed ED), 4 hours post infusion start
[8] = Compound A 44 mg (LD, printed ED), 8 hours post infusion start
[9] = Compound A 44 mg, after the end of infusion (1 hour post end of infusion)
[10] = Compound A 112 mg (HD), 2 hours post infusion start
[11] = Compound A 112 mg (HD), 4 hours post infusion start

COC(=O)N1CCC[C@H](NS(C)(=O)=O)[C@@H]1CO[C@H]1CC[C@@H](c2ccccc2)CC1 [Compound A, methyl (2R,3S)-3-((methylsulfonyl)amino)-2-(((cis-4-phenylcyclohexyl)oxy)methyl)piperidine-1-carboxylate]
Average total wake time (MWT), LS mean difference vs placebo (Compound A 44 mg): 16.36 min | Total sleep time (MWT) compared to placebo (Compound A 44 mg): not significantly different than placebo | Latency to Sleep Onset on MWT, LS Mean [1]: 35.74 min | Latency to Sleep Onset on MWT, LS Mean Difference vs placebo [1]: 20.06 min | Stage N1 Duration (MWT), LS Mean [1]: 0.13 min | Stage N1 Duration (MWT), LS Mean Difference vs placebo [1]: -1.02 min | Stage N2 Duration (MWT), LS Mean [1]: 0.24 min | Stage N2 Duration (MWT), LS Mean Difference vs placebo [1]: -0.61 min | Total Microsleeps (MWT), LS Mean [1]: 0.38 | Total Microsleeps (MWT), LS Mean Difference vs placebo [1]: −1.42 | Duration Total Microsleeps (MWT), LS Mean [2]: 10.39 s | Duration Total Microsleeps (MWT), LS Mean Difference vs placebo [2]: -1.91 s | Stage N1 Duration (MWT), LS Mean [2]: 0.52 min | Stage N1 Duration (MWT), LS Mean Difference vs placebo [2]: -1.13 min | Stage N2 Duration (MWT), LS Mean [2]: 0.51 min | Stage N2 Duration (MWT), LS Mean Difference vs placebo [2]: -0.64 min | Total Microsleeps (MWT), LS Mean [2]: 2.21 | Total Microsleeps (MWT), LS Mean Difference vs placebo [2]: −0.14 | Duration Total Microsleeps (MWT), LS Mean [3]: 11.84 s | Duration Total Microsleeps (MWT), LS Mean Difference vs placebo [3]: 4.44 s | Latency to Sleep Onset on MWT, LS Mean [3]: 20.71 min | Latency to Sleep Onset on MWT, LS Mean Difference vs placebo [3]: 14.56 min | Stage N1 Duration (MWT), LS Mean [3]: 1.80 min | Stage N1 Duration (MWT), LS Mean Difference vs placebo [3]: 0.65 min | Stage N2 Duration (MWT), LS Mean [3]: 2.63 min | Stage N2 Duration (MWT), LS Mean Difference vs placebo [3]: 2.13 min | Total Microsleeps (MWT), LS Mean [3]: 2.32 | Total Microsleeps (MWT), LS Mean Difference vs placebo [3]: 1.07 | Latency to Sleep Onset on MWT, LS Mean [4]: 13.13 min | Latency to Sleep Onset on MWT, LS Mean Difference vs placebo [4]: 9.60 min | Stage N1 Duration (MWT), LS Mean [4]: 1.57 min | Stage N1 Duration (MWT), LS Mean Difference vs placebo [4]: 0.42 min | Stage N2 Duration (MWT), LS Mean [4]: 3.74 min | Stage N2 Duration (MWT), LS Mean Difference vs placebo [4]: 2.64 min | Total Microsleeps (MWT), LS Mean [4]: 2.10 | Total Microsleeps (MWT), LS Mean Difference vs placebo [4]: 0.80 | Duration Total Microsleeps (MWT), LS Mean [5]: 8.89 s | Duration Total Microsleeps (MWT), LS Mean Difference vs placebo [5]: -0.18 s | Latency to Sleep Onset on MWT, LS Mean [5]: 25.40 min and 25.40 (1.955) min | Latency to Sleep Onset on MWT, LS Mean Difference vs placebo [5]: 16.79 min and 16.8 min and 16.79 (2.682) min | Stage N1 Duration (MWT), LS Mean [5]: 1.01 min | Stage N1 Duration (MWT), LS Mean Difference vs placebo [5]: -0.27 min | Stage N2 Duration (MWT), LS Mean [5]: 1.78 min | Stage N2 Duration (MWT), LS Mean Difference vs placebo [5]: 0.88 min | Total Microsleeps (MWT), LS Mean [5]: 1.75 | Total Microsleeps (MWT), LS Mean Difference vs placebo [5]: 0.08 | Duration Total Microsleeps (MWT), LS Mean [6]: 1.61 s | Duration Total Microsleeps (MWT), LS Mean Difference vs placebo [6]: -7.19 s | Latency to Sleep Onset on MWT, LS Mean [7]: 32.04 min | Latency to Sleep Onset on MWT, LS Mean Difference vs placebo [7]: 22.94 min | Duration Total Microsleeps (MWT), LS Mean [8]: 11.72 s | Duration Total Microsleeps (MWT), LS Mean Difference vs placebo [8]: 3.92 s | Latency to Sleep Onset on MWT, LS Mean (SE) [9]: 2.49 (2.241) | Latency to Sleep Onset on MWT, LS Mean Difference vs placebo, Estimate (SE) [9]: −2.16 (2.752) | Average total wake time (MWT), LS mean difference vs placebo (Compound A 112 mg): 29.59 min | Sleep latency on the MWT during infusion, stayed across several sessions (Compound A 112 mg): 40 min | Total sleep time (MWT), LS mean difference vs placebo (Compound A 112 mg): -2.56 min | Duration Total Microsleeps (MWT), LS Mean [10]: -0.02 s | Duration Total Microsleeps (MWT), LS Mean Difference vs placebo [10]: -8.82 s | Latency to Sleep Onset on MWT, LS Mean [10]: 40.02 min | Latency to Sleep Onset on MWT, LS Mean Difference vs placebo [10]: 24.35 min | Stage N1 Duration (MWT), LS Mean [10]: -0.04 min | Stage N1 Duration (MWT), LS Mean Difference vs placebo [10]: -1.19 min | Stage N2 Duration (MWT), LS Mean [10]: 0.00 min | Stage N2 Duration (MWT), LS Mean Difference vs placebo [10]: -0.85 min | Total Microsleeps (MWT), LS Mean [10]: 0.00 | Total Microsleeps (MWT), LS Mean Difference vs placebo [10]: −1.80 | Duration Total Microsleeps (MWT), LS Mean [11]: -0.02 s | Duration Total Microsleeps (MWT), LS Mean Difference vs placebo [11]: -12.3 s | Latency to Sleep Onset on MWT, LS Mean [11]: 40.05 min | Latency to Sleep Onset on MWT, LS Mean Difference vs placebo [11]: 30.95 min | Stage N1 Duration (MWT), LS Mean [11]: -0.04 min | Stage N1 Duration (MWT), LS Mean Difference vs placebo [11]: -1.69 min | Stage N2 Duration (MWT), LS Mean [11]: 0.00 min
